In PMC10115881, “Disrupting the α-synuclein-ESCRT interaction with a peptide inhibitor mitigates neurodegeneration in preclinical models of Parkinson’s disease” (Nature Communications, 2023):

Tested on: A53T a-syn
Assay: A53T a-syn immunofluorescence in rat cortical neurons
Type: cell-based, human
Conditions: primary rat cortical neurons
From the text: Pregnant rats (E17) of the Sprague-Dawley strain were purchased from Envigo. Embryos were surgically removed from the mothers and cortices dissected in Hanks Balanced salt solution (Gibco). The meninges were removed, and cells were dissociated using a papain dissociation system (Worthington) before being resuspended in Neurobasal medium A supplemented with antibiotic-antimycotic solution (Gibco), L-glutamine substitute (GlutaMAX™; Gibco) and factor B27 (Gibco). […]
After fixation, cells were permeabilized with 0.2% Triton-X-100 for 15 min, washed three times with PBS and then incubated with blocking solution (1% BSA, 22.52 mg/mL glycine, 0.1% Tween-20 in PBS or 0.4% saponin, 1% BSA, and 5% goat or donkey serum in PBS) for 1 h. […] Following another three washes with PBS, nuclei were counterstained with DAPI (ThermoFisher) and then coverslips were mounted on slides using Dako fluorescence mounting medium (Agilent) and sealed using clear nail varnish.
Confocal images of immunofluorescent staining were acquired with a Zeiss LSM880 confocal microscope equipped with 405, 488, 555, and 639 nm laser lines. All images were taken within the linear range at constant gain and pinhole settings at optimal resolution settings determined by the software. […]

Sequence: DEEIERQLKALG [PDpep1.3]
- Effect on A53T a-syn fluorescence: significant decrease in A53T a-syn fluorescence intensity
